Assay results reported in ChEMBL document CHEMBL1142070, “Antimicrobial susceptibility and synergy studies of Burkholderia cepacia complex isolated from patients with cystic fibrosis” (2007).
Converted amounts (≈) assume the structure as drawn.

Key:
Type in all cases: functional
Burkholderia cepacia [1] = experiment: Antimicrobial susceptibility of Burkholderia cepacia complex isolated from cystic fibrosis patient assessed as percent susceptible isolates
Burkholderia cepacia [2] = experiment: Antimicrobial activity against Burkholderia cepacia complex isolated from cystic fibrosis patient by broth microdilution assay
Burkholderia cepacia [3] = experiment: Antimicrobial susceptibility of Burkholderia cepacia complex isolated from cystic fibrosis patient assessed as percent resistant isolates

SMILES | Activity (Burkholderia cepacia [1]) [%] | MIC50 (Burkholderia cepacia [2]) [µg/mL] | MIC90 (Burkholderia cepacia [2]) [µg/mL] | Activity (Burkholderia cepacia [3]) [%]
NCC[C@H](O)C(=O)N[C@@H]1C[C@H](N)[C@@H](O[C@H]2O[C@H](CN)[C@@H](O)[C@H](O)[C@H]2O)[C@H](O)[C@H]1O[C@H]1O[C@H](CO)[C@@H](O)[C@H](N)[C@H]1O [AMIKACIN] | 4 |  |  | 
C[C@H]1[C@H](NC(=O)/C(=N\OC(C)(C)C(=O)O)c2csc(N)n2)C(=O)N1S(=O)(=O)O [AZTREONAM] | 2 |  |  | 
CO/N=C(\C(=O)N[C@@H]1C(=O)N2C(C(=O)[O-])=C(C[N+]3(C)CCCC3)CS[C@H]12)c1csc(N)n1 [CEFEPIME] | 8 |  |  | 
CC(C)(O/N=C(\C(=O)N[C@@H]1C(=O)N2C(C(=O)[O-])=C(C[n+]3ccccc3)CS[C@H]12)c1csc(N)n1)C(=O)O [CEFTAZIDIME] | 23 | 32 (≈ 58.5 µM) | 128 (≈ 234 µM) | 65
O=C(N[C@H](CO)[C@H](O)c1ccc([N+](=O)[O-])cc1)C(Cl)Cl [CHLORAMPHENICOL] | 5 | 64 (≈ 198 µM) | > 64 | 85
O=C(O)c1cn(C2CC2)c2cc(N3CCNCC3)c(F)cc2c1=O [CIPROFLOXACIN] | 5 |  |  | 
C[C@H]1c2cccc(O)c2C(=O)C2=C(O)[C@]3(O)C(=O)C(C(N)=O)=C(O)[C@@H](N(C)C)[C@@H]3[C@@H](O)[C@@H]21.O [DOXYCYCLINE] | 22 | 16 | > 32 | 61
C[C@@H](O)[C@H]1C(=O)N2C(C(=O)O)=C(SCCNC=N)C[C@H]12 [IMIPENEM ANHYDROUS] | 7 |  |  | 
C[C@@H](O)[C@H]1C(=O)N2C(C(=O)O)=C(S[C@@H]3CN[C@H](C(=O)N(C)C)C3)[C@H](C)[C@H]12 [MEROPENEM] | 26 | 8 (≈ 20.9 µM) | 32 (≈ 83.4 µM) | 48
CN(C)c1ccc(O)c2c1C[C@H]1C[C@H]3[C@H](N(C)C)C(O)=C(C(N)=O)C(=O)[C@@]3(O)C(O)=C1C2=O [MINOCYCLINE] | 38 | 8 (≈ 17.5 µM) | 32 (≈ 69.9 µM) | 37
CCN1CCN(C(=O)N[C@@H](C(=O)N[C@@H]2C(=O)N3[C@@H]2SC(C)(C)[C@@H]3C(=O)O)c2ccccc2)C(=O)C1=O [PIPERACILLIN] | 11 | 256 (≈ 495 µM) | > 256 | 80
CO[C@H]1/C=C/O[C@@]2(C)Oc3c(C)c(O)c4c(O)c(c(/C=N/N5CCN(C)CC5)c(O)c4c3C2=O)NC(=O)/C(C)=C\C=C\[C@H](C)[C@H](O)[C@@H](C)[C@@H](O)[C@@H](C)[C@H](OC(C)=O)[C@@H]1C [RIFAMPIN] | 1 |  |  | 
CC1(C)S[C@@H]2[C@H](NC(=O)[C@H](C(=O)O)c3ccsc3)C(=O)N2[C@H]1C(=O)O [TICARCILLIN] | 2 |  |  | 
